In patent US7452905B2, “Phenylalanine derivatives” (Ajinomoto Co., Inc., priority 2000, dated 2008):
pIC50: −log10 of the molar value.

Molecular target: T1, integrin α4β7 (Homo sapiens, UniProt P13612+P26010)
T1 construct: lymphoma cell strain RPMI-8866 of human B cells, known to express integrin α4β7; endogenous in cells; host or cells: RPMI-8866
T1 sequence (P13612 34-1032): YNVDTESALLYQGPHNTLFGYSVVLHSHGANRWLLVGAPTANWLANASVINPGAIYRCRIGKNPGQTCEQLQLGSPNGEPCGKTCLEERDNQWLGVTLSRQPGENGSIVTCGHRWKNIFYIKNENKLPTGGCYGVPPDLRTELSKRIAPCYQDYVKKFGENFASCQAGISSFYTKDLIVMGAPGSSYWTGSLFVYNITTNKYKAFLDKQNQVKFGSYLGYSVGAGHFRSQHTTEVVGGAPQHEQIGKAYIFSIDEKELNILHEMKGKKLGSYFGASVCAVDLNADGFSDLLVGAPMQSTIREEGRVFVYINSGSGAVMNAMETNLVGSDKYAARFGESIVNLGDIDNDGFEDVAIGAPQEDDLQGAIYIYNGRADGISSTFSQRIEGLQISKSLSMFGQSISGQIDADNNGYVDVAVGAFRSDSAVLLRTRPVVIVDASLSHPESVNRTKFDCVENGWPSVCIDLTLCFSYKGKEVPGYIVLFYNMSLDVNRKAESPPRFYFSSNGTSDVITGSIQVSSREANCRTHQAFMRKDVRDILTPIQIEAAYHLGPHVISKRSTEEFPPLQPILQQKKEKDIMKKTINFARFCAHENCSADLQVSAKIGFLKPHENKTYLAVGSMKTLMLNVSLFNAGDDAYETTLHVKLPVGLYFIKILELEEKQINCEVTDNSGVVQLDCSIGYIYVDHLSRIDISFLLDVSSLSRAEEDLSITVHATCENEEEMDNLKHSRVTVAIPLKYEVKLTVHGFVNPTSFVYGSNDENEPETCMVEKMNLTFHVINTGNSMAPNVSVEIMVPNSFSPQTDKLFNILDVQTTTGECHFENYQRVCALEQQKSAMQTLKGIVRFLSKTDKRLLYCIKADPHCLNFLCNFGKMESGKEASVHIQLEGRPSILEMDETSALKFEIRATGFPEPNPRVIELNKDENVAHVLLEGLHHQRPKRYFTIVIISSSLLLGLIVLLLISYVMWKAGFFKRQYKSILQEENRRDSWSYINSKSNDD
T1 sequence (P26010 20-798): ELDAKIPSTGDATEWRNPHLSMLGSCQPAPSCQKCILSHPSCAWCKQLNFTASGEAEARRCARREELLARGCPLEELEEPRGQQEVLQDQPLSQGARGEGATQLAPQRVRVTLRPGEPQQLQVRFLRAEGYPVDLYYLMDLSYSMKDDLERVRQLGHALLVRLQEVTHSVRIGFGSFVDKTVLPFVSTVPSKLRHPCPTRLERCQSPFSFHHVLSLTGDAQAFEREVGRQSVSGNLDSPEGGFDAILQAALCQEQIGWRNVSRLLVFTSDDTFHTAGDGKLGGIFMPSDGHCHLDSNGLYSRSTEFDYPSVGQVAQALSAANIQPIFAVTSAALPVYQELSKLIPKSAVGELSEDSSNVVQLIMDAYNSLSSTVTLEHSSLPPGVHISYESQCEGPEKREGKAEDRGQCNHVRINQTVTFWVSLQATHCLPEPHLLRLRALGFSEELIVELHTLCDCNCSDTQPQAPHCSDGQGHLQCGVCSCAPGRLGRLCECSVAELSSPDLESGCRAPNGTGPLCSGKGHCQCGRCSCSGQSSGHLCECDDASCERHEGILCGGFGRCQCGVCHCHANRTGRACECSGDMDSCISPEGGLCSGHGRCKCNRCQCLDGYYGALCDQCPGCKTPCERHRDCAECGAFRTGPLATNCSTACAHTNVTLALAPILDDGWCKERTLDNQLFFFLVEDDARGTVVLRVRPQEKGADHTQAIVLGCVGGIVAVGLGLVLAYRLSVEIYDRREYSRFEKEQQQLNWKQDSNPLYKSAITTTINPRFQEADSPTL
Test: VCAM antagonistic activity (VCAM-1/α4β7 binding assay), RPMI-8866 cells binding to VCAM-1
Type: cell-based
Conditions: RPMI-8866 cells binding to recombinant human VCAM-1, binding buffer with 4 mM MnCl2; 50% binding inhibition; read-out: Antagonistic Activity IC50 α 4 β 7/VCAM
Protocol: VCAM Antagonistic Activity (VCAM-1/α4β7 Binding Assay)
The capacity of a test substance antagonistic to the binding of lymphoma cell strain RPMI-8866 of human B cells, known to express integrin α4β7, to VCAM-1 was determined. 100 μl/well of a solution (500 ng/ml) of recombinant human VCAM-1 (R & D systems) solution diluted with buffer A (0.1 M NaHCO3, pH 9.6) was added to a micro titer plate having 96 wells (Nunc Maxisorp). After the incubation at 4° C. overnight, unbound VCAM-1 was removed by washing once with PBS. After completion of the washing, a buffer (buffer B) obtained by diluting Block Ace (Dainippon Pharmaceutical Co., Ltd.) with PBS to ¼ concentration was added in an amount of 150 μl/well. After the incubation at room temperature for 1 hour, buffer B was removed and the plate was washed with PBS once.
RPMI-8866 cells were incubated in Dulbecco modified Eagle medium containing 10 μg/ml of Calcein-AM (Wako Pure Chemical Industries, Ltd.) (SIGMA, hereinafter referred to as “DMEM”) at 37° C. for 30 minutes to label with fluorescence. The cells were again suspended in a binding buffer (20 mM HEPES, DMEM containing 0.1% BSA) containing 4 mM of MnCl2.
50 μl of a test substance of various concentrations obtained by the dilution with the binding buffer was added to the plate. Immediately thereafter, 50 μl (final volume: 100 μl/well) of the fluorescent RPMI-8866 cells (4×10^6 cells/ml) were added thereto, and they were incubated at room temperature for 30 minutes. After the shaking on a plate shaker (IKA MTS-4) at 800 rpm for 30 seconds, the solution was immediately removed to remove the unbound cells. The fluorescence quantity of the bound cells remaining in the wells was determined with a fluorescent plate reader (Wallac 1420 ARVO multi-label counter) (filter excitation wave length: 485 nm, emission wave length: 535 nm). The fluorescent strength thus obtained is proportional to the number of RPMI-8866 cells bound to VCAM-1 and remaining on the plate. The binding rate of each test material in various concentrations was determined while the fluorescent strength of the test material-free well was determined to be 100%. The concentration IC50 for the 50% binding inhibition was calculated.

Row | pIC50 | SMILES
1 | 7.07 | CCOc1ccc2c(c1)C(=O)N(c1ccc(C[C@H](NC(=O)c3c(Cl)cccc3Cl)C(=O)O)cc1)C2=O [Example 79]
2 | 7.68 | O=C(N[C@@H](Cc1ccc(N2C(=O)[C@@H]3[C@H](C2=O)[C@@H]2C=C[C@H]3C2)cc1)C(=O)O)c1c(Cl)cccc1Cl [Example 42]
3 | 7.34 | Cc1ccc(C)c2c1C(=O)N(c1ccc(C[C@H](NC(=O)c3c(Cl)cccc3Cl)C(=O)O)cc1)C2=O [Example 30]
4 | 7.38 | COc1ccc2c(c1)C(=O)N(c1ccc(C[C@H](NC(=O)c3c(Cl)cccc3Cl)C(=O)O)cc1)C2=O [Example 78]
5 | 7.38 | O=C(N[C@@H](Cc1ccc(N2C(=O)C3CC3C2=O)cc1)C(=O)O)c1c(Cl)cccc1Cl (some centres unmarked) [Example 46]
6 | 7.41 | O=C(N[C@@H](Cc1ccc(N2C(=O)[C@@H]3[C@H](C2=O)[C@@H]2C=C[C@H]3CC2)cc1)C(=O)O)c1c(Cl)cccc1Cl [Example 44]
7 | 7.89 | O=C(N[C@@H](Cc1ccc(N2C(=O)C3=C(SCCS3)C2=O)cc1)C(=O)O)c1c(Cl)cccc1Cl [Example 38]
8 | 7.72 | O=C(N[C@@H](Cc1ccc(N2C(=O)[C@H]3CC=CC[C@H]3C2=O)cc1)C(=O)O)c1c(Cl)cccc1Cl [Example 45]
9 | 9.26 | Cc1cccc2c1C(=O)N(c1ccc(C[C@H](NC(=O)c3c(Cl)cc(-c4nnn[nH]4)cc3Cl)C(=O)O)cc1)C2=O [Example 83, (2S)-2-(2,6-dichloro-4-tetrazolyl-benzoylamino)-3-[4-(4-methyl-1,3-dioxo-1,3-dihydroisoindole-2-yl)phenyl] Propionic Acid]
10 | 7.22 | CC1(C)[C@H]2CC[C@]1(C)C(=O)N(c1ccc(C[C@H](NC(=O)c3c(Cl)cccc3Cl)C(=O)O)cc1)C2=O [Example 49]
11 | 8.07 | CCOc1cccc2c1C(=O)N(c1ccc(C[C@H](NC(=O)c3c(Cl)cccc3Cl)C(=O)O)cc1)C2=O [Example 73]
12 | 6.64 | Nc1cccc2c1C(=O)N(c1ccc(C[C@H](NC(=O)c3c(Cl)cccc3Cl)C(=O)O)cc1)C2=O [Example 71]
13 | 6.05 | O=C(N[C@@H](Cc1ccc(N2C(=O)Cc3ccccc3CC2=O)cc1)C(=O)O)c1c(Cl)cccc1Cl [Example 82]
14 | 6.80 | O=C(N[C@@H](Cc1ccc(N2CC=CC2=O)cc1)C(=O)O)c1c(Cl)cccc1Cl [Example 25]
15 | 7.41 | CC(=O)C1Cc2ccccc2C(=O)N1c1ccc(C[C@H](NC(=O)c2c(Cl)cccc2Cl)C(=O)O)cc1 (some centres unmarked) [Example 86]
16 | 7.14 | O=C(N[C@@H](Cc1ccc(N2CC=CCCC2=O)cc1)C(=O)O)c1c(Cl)cccc1Cl [Example 27]
17 | 7.96 | Cc1ccc2c(c1)C(=O)N(c1ccc(C[C@H](NC(=O)c3c(Cl)cccc3Cl)C(=O)O)cc1)C2=O [Example 6]
18 | 7.62 | O=C(N[C@@H](Cc1ccc(N2C(=O)c3ccc([N+](=O)[O-])cc3C2=O)cc1)C(=O)O)c1c(Cl)cccc1Cl [Example 9]

Row | pIC50 | SMILES
19 | 7.14 | O=C(N[C@@H](Cc1ccc(N2C(=O)c3ccc(O)cc3C2=O)cc1)C(=O)O)c1c(Cl)cccc1Cl [Example 77]
20 | 7.68 | O=C(N[C@@H](Cc1ccc(N2C(=O)c3cccc4cccc(c34)C2=O)cc1)C(=O)O)c1c(Cl)cccc1Cl [Example 16]
21 | 8.05 | CN(C)C(=O)c1ccc2c(c1)C(=O)N(c1ccc(C[C@H](NC(=O)c3c(Cl)cccc3Cl)C(=O)O)cc1)C2=O [Example 33]
22 | 8.00 | Cc1cccc2c1C(=O)N(c1ccc(C[C@H](NC(=O)c3c(Cl)cncc3Cl)C(=O)O)cc1)C2=O [Example 59]
23 | 6.96 | O=C(N[C@@H](Cc1ccc(N2C(=O)c3cccc(OCc4ccccc4)c3C2=O)cc1)C(=O)O)c1c(Cl)cccc1Cl [Example 74]
24 | 6.85 | O=C(N[C@@H](Cc1ccc(N2Cc3ccccc3C2=O)cc1)C(=O)O)c1c(Cl)cccc1Cl [Example 17]
25 | 7.37 | CC1CCC2C(=O)N(c3ccc(C[C@H](NC(=O)c4c(Cl)cccc4Cl)C(=O)O)cc3)C(=O)C2C1 (some centres unmarked) [Example 43]
26 | 7.10 | O=C(N[C@@H](Cc1ccc(N2CC=CCC2=O)cc1)C(=O)O)c1c(Cl)cccc1Cl [Example 26]
27 | 8.01 | O=C(N[C@@H](Cc1ccc(N2C(=O)c3ccccc3C2=O)cc1)C(=O)O)c1c(Cl)cccc1Cl [Example 1]
28 | 7.10 | O=C(N[C@@H](Cc1ccc(N2C(=O)c3ccc(OCc4ccccc4)cc3C2=O)cc1)C(=O)O)c1c(Cl)cccc1Cl [Example 80]
29 | 8.24 | O=C(N[C@@H](Cc1ccc(N2C(=O)C3=C(CCCC3)C2=O)cc1)C(=O)O)c1c(Cl)cccc1Cl [Example 37]
30 | 7.26 | CCCCOc1cccc2c1C(=O)N(c1ccc(C[C@H](NC(=O)c3c(Cl)cccc3Cl)C(=O)O)cc1)C2=O [Example 75]
31 | 7.68 | O=C(N[C@@H](Cc1ccc(N2C(=O)CC3(CCCC3)CC2=O)cc1)C(=O)O)c1c(Cl)cccc1Cl [Example 48]
32 | 7.74 | O=C(N[C@@H](Cc1ccc(N2C(=O)[C@@H]3CCCC[C@H]3C2=O)cc1)C(=O)O)c1c(Cl)cccc1Cl [Example 40]
33 | 7.04 | O=C(N[C@@H](Cc1ccc(N2C(=O)[C@H]3CC[C@H](c4ccccc4)C[C@H]3C2=O)cc1)C(=O)O)c1c(Cl)cccc1Cl [Example 47]
34 | 7.47 | O=C(N[C@@H](Cc1ccc(N2C(=O)Cc3ccccc3C2=O)cc1)C(=O)O)c1c(Cl)cccc1Cl [Example 15]
35 | 9.22 | Cc1cccc2c1C(=O)N(c1ccc(C[C@H](NC(=O)c3c(Cl)cc(NS(C)(=O)=O)cc3Cl)C(=O)O)cc1)C2=O [Example 84]
